Source: ChEMBL document CHEMBL4482315, “In vivo imaging of sulfotransferases” (2013)

Assays:
Sulfotransferase 1E1 [1] = molecular target: T1, Sulfotransferase 1E1 (Homo sapiens, UniProt P49888); test: Substrate activity at SULT1E1 (unknown origin) expressed in baculovirus infected Sf9 cells assessed as substrate Km incubated for 15 mins using [35S-]PAPS as sulfate donor by TLC analysis; conditions: sf9, 0.25 h, BLD = below limit of detection
T1 sequence (P49888 whole entry): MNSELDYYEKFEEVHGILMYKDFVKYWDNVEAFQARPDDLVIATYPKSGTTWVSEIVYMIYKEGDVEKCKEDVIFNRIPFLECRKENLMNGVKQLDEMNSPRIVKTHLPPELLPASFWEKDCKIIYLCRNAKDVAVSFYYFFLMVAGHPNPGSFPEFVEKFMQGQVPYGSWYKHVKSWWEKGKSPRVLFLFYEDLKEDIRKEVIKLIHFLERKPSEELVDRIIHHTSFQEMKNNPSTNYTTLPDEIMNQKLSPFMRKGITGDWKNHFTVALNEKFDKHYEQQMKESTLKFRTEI

Sulfotransferase 1E1 [2] = molecular target: T1, Sulfotransferase 1E1; test: Substrate activity at SULT1E1 (unknown origin) expressed in baculovirus infected Sf9 cells assessed as substrate Vmax incubated for 15 mins using [35S-]PAPS as sulfate donor by TLC analysis; conditions: sf9, 0.25 h, BLD = below limit of detection
Sulfotransferase 1E1 [3] = molecular target: T1, Sulfotransferase 1E1; test: Substrate activity at SULT1E1 (unknown origin) expressed in baculovirus infected Sf9 cells assessed as substrate Vmax/Km ratio level incubated for 15 mins using [35S-]PAPS as sulfate donor by TLC analysis; conditions: sf9, 0.25 h
Sulfotransferase 2A1 [4] = molecular target: T2, Sulfotransferase 2A1 (Homo sapiens, UniProt Q06520); test: Substrate activity at SULT2A1 (unknown origin) expressed in baculovirus infected Sf9 cells assessed as substrate Vmax incubated for 15 mins using [35S-]PAPS as sulfate donor by TLC analysis; conditions: sf9, 0.25 h, BLD = below limit of detection
T2 sequence (Q06520 whole entry): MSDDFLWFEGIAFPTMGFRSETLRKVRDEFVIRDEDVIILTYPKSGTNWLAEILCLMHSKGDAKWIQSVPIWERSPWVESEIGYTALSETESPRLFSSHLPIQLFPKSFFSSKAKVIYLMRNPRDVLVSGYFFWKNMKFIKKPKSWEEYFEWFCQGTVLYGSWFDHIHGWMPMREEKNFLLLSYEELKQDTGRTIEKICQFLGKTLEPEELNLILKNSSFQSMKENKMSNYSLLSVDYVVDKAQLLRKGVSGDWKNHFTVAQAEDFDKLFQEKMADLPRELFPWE

Sulfotransferase 2A1 [5] = molecular target: T2, Sulfotransferase 2A1; test: Substrate activity at SULT2A1 (unknown origin) expressed in baculovirus infected Sf9 cells assessed as substrate Vmax/Km ratio incubated for 15 mins using [35S-]PAPS as sulfate donor by TLC analysis; conditions: sf9, 0.25 h, BLD = below limit of detection
Sulfotransferase 2A1 [6] = molecular target: T2, Sulfotransferase 2A1; test: Substrate activity at SULT2A1 (unknown origin) expressed in baculovirus infected Sf9 cells assessed as substrate Km incubated for 15 mins using [35S-]PAPS as sulfate donor by TLC analysis; conditions: sf9, 0.25 h, BLD = below limit of detection
Sulfotransferase 1A1 [7] = molecular target: T3, Sulfotransferase 1A1 (Homo sapiens, UniProt P50225); test: Substrate activity at SULT1A1 (unknown origin) expressed in baculovirus infected Sf9 cells assessed as substrate Km incubated for 15 mins using [35S-]PAPS as sulfate donor by TLC analysis; conditions: sf9, 0.25 h, BLD = below limit of detection
T3 sequence (P50225 whole entry): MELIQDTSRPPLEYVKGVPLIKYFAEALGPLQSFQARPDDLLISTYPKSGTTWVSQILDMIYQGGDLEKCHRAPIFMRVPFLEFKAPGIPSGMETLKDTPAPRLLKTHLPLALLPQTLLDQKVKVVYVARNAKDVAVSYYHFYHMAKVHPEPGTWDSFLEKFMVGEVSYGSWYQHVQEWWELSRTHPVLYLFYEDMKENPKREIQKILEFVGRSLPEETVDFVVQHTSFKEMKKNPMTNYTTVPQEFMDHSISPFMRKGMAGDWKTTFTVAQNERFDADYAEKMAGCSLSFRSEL

Sulfotransferase 1A1 [8] = molecular target: T3, Sulfotransferase 1A1; test: Substrate activity at SULT1A1 (unknown origin) expressed in baculovirus infected Sf9 cells assessed as substrate Vmax incubated for 15 mins using [35S-]PAPS as sulfate donor by TLC analysis; conditions: sf9, 0.25 h, BLD = below limit of detection
Sulfotransferase 1A1 [9] = molecular target: T3, Sulfotransferase 1A1; test: Substrate activity at SULT1A1 (unknown origin) expressed in baculovirus infected Sf9 cells assessed as substrate Vmax/Km ratio incubated for 15 mins using [35S-]PAPS as sulfate donor by TLC analysis; conditions: sf9, 0.25 h, BLD = below limit of detection
[10] = Drug uptake in liver of non-smoker human subject at 10 mCi by microPET imaging method; assay type: ADME
[11] = Drug uptake in lung of non-smoker human subject at 10 mCi by microPET imaging method; assay type: ADME
[12] = Drug uptake in liver of smoker human subject at 10.5 mCi by microPET imaging method; assay type: ADME
[13] = Drug uptake in lung of smoker human subject at 10.5 mCi by microPET imaging method; assay type: ADME
[14] = Drug uptake in kidney of smoker human subject at 10.5 mCi by microPET imaging method; assay type: ADME
[15] = Drug uptake in lung of Sprague-Dawley rat with lung inflammation assessed as sulfated form formation at 2 to 2.5 mCi dosed via injection measured after 10 to 15 mins post dose by microPET imaging method; assay type: ADME, organism-based; conditions: in vivo
[16] = Drug uptake in kidney of non-smoker human subject at 10 mCi by microPET imaging method; assay type: ADME

Row | Compound | Vmax (Sulfotransferase 2A1 [4]) | Vmax/Km (Sulfotransferase 2A1 [5]) | Km (Sulfotransferase 2A1 [6]) | Vmax/Km (Sulfotransferase 1E1 [3]) | Km (Sulfotransferase 1A1 [7]) | Vmax (Sulfotransferase 1A1 [8]) | Vmax/Km (Sulfotransferase 1A1 [9]) | further results
1 | Oc1ccc2cc[nH]c2c1 | Bld | Bld | Bld |  |  |  |  | Km (Sulfotransferase 1E1 [1]): Bld; Vmax (Sulfotransferase 1E1 [2]): Bld; Vmax/Km (Sulfotransferase 1E1 [3]; BLD = below limit of detection): Bld
2 | Oc1ccc2occc2c1 | Bld | Bld | Bld | 0.01 |  |  |  | 
3 | Oc1ccc2ccoc2c1 | Bld | Bld | Bld | 0.03 |  |  |  | 
4 | Oc1ccc2[nH]ccc2c1 | Bld | Bld | Bld |  |  |  |  | Km (Sulfotransferase 1E1 [1]): Bld; Vmax (Sulfotransferase 1E1 [2]): Bld; Vmax/Km (Sulfotransferase 1E1 [3]; BLD = below limit of detection): Bld
5 | Oc1ccc2sccc2c1 | Bld | Bld | Bld | 0.08 |  |  |  | 
6 | Cc1nc2ccc(O)cc2s1 | Bld | Bld | Bld | 0.47 |  |  |  | 
7 | Cc1nc2cc(O)ccc2s1 | Bld | Bld | Bld | 0.3 |  |  |  | 
8 | Oc1ccc2[nH]cnc2c1 | Bld | Bld | Bld |  |  |  |  | Km (Sulfotransferase 1E1 [1]): Bld; Vmax (Sulfotransferase 1E1 [2]): Bld; Vmax/Km (Sulfotransferase 1E1 [3]; BLD = below limit of detection): Bld
9 | Oc1ccc2ncoc2c1 | Bld | Bld | Bld | 0.006 |  |  |  | 
10 | Oc1ccc2ccsc2c1 | Bld | Bld | Bld | 0.25 |  |  |  | 
11 | Oc1ccc2ncsc2c1 | Bld | Bld | Bld | 0.04 |  |  |  | 
12 | Oc1ccc2ccccc2c1 [BETANAPHTHOL] |  |  |  | 0.57 |  |  |  | 
13 | [11CH3]Nc1ccc(-c2nc3ccc(O)cc3s2)cc1 [PITTSBURGH COMPOUND B] |  |  |  |  |  |  |  | Drug uptake [10]: Active; Drug uptake [11]: Active; Drug uptake [12]: Active; Drug uptake [13]: Active; Drug uptake [14]: Active; Drug uptake [15]: Active; Drug uptake [16]: Active

Continued, in another order:

Row | Vmax (Sulfotransferase 2A1 [4]) | Vmax/Km (Sulfotransferase 2A1 [5]) | Km (Sulfotransferase 2A1 [6]) | Vmax/Km (Sulfotransferase 1E1 [3]) | Km (Sulfotransferase 1A1 [7]) | Vmax (Sulfotransferase 1A1 [8]) | Vmax/Km (Sulfotransferase 1A1 [9]) | Compound | further results
14 | Bld | Bld | Bld | 2.69 | Bld | Bld | Bld | CS(=O)(=O)c1ccc(-c2nc3ccc(O)cc3s2)cc1 | 
15 | Bld | Bld | Bld | 0.87 | Bld | Bld | Bld | CC(=O)Nc1ccc(-c2nc3ccc(O)cc3s2)cc1 | 
16 | Bld | Bld | Bld | 2.47 |  |  |  | CN(C)c1ccc(-c2nc3cc(O)ccc3s2)cc1 | 
17 | Bld | Bld | Bld | 2.19 | Bld | Bld | Bld | COc1ccc(-c2nc3ccc(O)cc3s2)cc1 | 
18 | Bld | Bld | Bld | 17.1 | Bld | Bld | Bld | N#Cc1ccc(-c2nc3ccc(O)cc3s2)cc1 | 
19 | Bld | Bld | Bld | 29.2 | Bld | Bld | Bld | O=[N+]([O-])c1ccc(-c2nc3ccc(O)cc3s2)cc1 | 
20 | Bld | Bld | Bld | 5.64 | Bld | Bld | Bld | Oc1ccc2nc(-c3ccc(I)cc3)sc2c1 | 
21 | Bld | Bld | Bld | 3.22 |  |  |  | Oc1ccc2nc(-c3ccccc3)sc2c1 | 
22 | Bld | Bld | Bld | 4.52 | Bld | Bld | Bld | Oc1ccc2nc(-c3ccc(F)cc3)sc2c1 | 
23 | Bld | Bld | Bld | 1.39 |  |  |  | CNc1ccc(-c2nc3cc(O)ccc3s2)cc1 | 
24 | Bld | Bld | Bld | 1.11 | Bld | Bld | Bld | CN(C)c1ccc(-c2nc3ccc(O)cc3s2)cc1 | 
25 | Bld | Bld | Bld | 1.7 | Bld | Bld | Bld | Nc1ccc(-c2nc3ccc(O)cc3s2)cc1 | 
26 | Bld | Bld | Bld | 1.28 | Bld | Bld | Bld | CNc1ccc(-c2nc3ccc(O)cc3s2)cc1 [PITTSBURGH COMPOUND B UNLABELLED] | 
